# Experiments:
# [1] = Half life in human liver microsomes; assay type: ADME, Microsome
# [2] = Stability in human liver microsome after 60 mins; assay type: ADME; settings: liver microsomes, read-out: Stability
structure (smiles),measurement,setting,value
c1cc2c3c(cccc3c1)C(N1CCC(c3c[nH]c4ncccc34)CC1)C2 (configuration not stated),half-life,[1],15 min
same,remaining at 1 h,[2],14%
